pIC50, pKi: −log10 of the molar value.
Columns and labels:
[1] = biological target: Vascular endothelial growth factor receptor 1 (Homo sapiens, UniProt P17948); test: Inhibition of VEGFR1 (unknown origin)
[2] = biological target: Tyrosine-protein kinase ABL1 (Homo sapiens, UniProt P00519); test: Inhibition of ABL1 (unknown origin)
Tyrosine-protein kinase ABL1, sequence (P00519 whole entry): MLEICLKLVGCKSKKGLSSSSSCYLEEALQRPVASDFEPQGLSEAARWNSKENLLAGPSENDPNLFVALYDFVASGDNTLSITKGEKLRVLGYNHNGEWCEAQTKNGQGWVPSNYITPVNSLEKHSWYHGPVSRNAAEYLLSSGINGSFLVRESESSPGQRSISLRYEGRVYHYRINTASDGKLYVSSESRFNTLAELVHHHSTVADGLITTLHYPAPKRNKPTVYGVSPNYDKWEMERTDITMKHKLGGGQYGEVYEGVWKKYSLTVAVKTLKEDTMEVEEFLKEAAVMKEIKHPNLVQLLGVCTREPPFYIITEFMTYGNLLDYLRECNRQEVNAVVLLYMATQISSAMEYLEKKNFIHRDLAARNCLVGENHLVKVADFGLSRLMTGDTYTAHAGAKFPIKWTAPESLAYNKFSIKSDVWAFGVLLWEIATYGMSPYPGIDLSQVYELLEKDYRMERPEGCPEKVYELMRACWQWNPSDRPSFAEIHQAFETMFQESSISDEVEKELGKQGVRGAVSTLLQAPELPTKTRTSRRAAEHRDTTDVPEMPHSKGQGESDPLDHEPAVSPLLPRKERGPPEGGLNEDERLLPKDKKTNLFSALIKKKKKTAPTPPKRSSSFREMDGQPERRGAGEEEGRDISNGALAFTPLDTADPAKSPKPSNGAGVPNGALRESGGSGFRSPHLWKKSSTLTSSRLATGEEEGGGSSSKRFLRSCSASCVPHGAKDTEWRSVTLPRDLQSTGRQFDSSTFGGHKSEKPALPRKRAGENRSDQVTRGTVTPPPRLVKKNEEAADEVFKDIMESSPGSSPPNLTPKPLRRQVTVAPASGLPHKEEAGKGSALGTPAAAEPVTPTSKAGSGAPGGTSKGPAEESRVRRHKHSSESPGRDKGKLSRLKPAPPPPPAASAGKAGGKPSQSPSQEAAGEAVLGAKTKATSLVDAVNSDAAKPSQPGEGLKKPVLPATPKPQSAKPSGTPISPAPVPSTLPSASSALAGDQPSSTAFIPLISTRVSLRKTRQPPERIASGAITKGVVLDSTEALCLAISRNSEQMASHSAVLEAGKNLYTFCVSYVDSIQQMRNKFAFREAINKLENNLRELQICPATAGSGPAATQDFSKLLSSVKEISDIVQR

Vascular endothelial growth factor receptor 1, sequence (P17948 whole entry): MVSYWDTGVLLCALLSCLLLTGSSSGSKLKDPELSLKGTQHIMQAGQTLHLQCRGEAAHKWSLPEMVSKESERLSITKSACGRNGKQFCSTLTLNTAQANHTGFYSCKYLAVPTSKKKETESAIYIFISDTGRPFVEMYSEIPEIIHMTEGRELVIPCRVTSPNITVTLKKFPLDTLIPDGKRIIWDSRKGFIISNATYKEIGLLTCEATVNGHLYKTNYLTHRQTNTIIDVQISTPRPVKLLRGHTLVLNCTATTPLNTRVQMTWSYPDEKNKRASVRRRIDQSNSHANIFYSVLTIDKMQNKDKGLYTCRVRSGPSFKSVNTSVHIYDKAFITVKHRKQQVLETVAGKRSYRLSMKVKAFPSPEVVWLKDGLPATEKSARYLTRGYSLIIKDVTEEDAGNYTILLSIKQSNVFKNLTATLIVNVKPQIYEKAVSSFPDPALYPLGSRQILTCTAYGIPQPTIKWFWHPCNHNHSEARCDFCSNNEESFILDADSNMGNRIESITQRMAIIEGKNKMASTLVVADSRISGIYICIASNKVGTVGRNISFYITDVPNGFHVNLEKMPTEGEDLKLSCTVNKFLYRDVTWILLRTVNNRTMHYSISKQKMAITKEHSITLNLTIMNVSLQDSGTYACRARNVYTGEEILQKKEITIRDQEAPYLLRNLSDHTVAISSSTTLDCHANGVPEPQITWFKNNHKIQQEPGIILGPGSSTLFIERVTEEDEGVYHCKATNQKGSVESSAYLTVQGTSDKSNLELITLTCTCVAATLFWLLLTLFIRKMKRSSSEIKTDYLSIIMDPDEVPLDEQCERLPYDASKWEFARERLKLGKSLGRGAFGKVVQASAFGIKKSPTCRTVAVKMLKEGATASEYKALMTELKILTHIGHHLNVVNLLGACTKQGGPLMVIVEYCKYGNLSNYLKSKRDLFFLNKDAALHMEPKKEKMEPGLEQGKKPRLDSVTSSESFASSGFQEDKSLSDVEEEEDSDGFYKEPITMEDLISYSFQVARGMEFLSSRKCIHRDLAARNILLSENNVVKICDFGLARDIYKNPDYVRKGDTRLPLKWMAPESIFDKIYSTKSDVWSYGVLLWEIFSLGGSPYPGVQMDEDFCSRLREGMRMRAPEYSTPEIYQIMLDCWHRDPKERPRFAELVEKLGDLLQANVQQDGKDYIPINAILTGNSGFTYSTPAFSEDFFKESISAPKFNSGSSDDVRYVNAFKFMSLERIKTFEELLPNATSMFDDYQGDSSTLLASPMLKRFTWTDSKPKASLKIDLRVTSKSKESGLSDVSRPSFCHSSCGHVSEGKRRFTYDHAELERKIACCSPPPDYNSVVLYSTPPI

pIC50 [1]	pKi [2]	SMILES
6.00		ClC(Cn1ncc2c(NCc3ccccc3)ncnc21)c1ccccc1 (configuration not stated)
	5.70	CCCCNc1ncnc2c1cnn2CC(Cl)c1ccccc1 (configuration not stated)
